Biological target: T1, Human TREK-2 (KCNK10) crystal construct (Homo sapiens, UniProt P57789)
T1 construct: “crystal construct” protein (Gly67 to Glu340); made in house
T1 sequence (P57789 67-340 isoform P57789-4): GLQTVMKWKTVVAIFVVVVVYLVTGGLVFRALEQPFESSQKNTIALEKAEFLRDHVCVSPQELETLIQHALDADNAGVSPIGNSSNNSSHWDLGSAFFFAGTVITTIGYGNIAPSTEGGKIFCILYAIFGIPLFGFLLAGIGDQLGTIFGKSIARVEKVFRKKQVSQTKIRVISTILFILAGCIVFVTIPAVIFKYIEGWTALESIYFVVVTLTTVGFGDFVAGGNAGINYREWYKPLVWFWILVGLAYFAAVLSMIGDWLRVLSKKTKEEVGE
Assay: Single-channel recordings of purified TREK-2 reconstituted in lipid bilayers
Assay type: biochemical
Conditions: for Po (single-channel open probability) / block of channel (Po): 10 µM NFx; for Po (single-channel open probability): +60 mV; for AC1, area of closed state 1 / AC2, area of closed state 2 / AC3, area of closed state 3 / AC4, area of closed state 4 / AC5, area of closed state 5 / τC1, mean lifetime of closed state 1 / τC2, mean lifetime of closed state 2 / τC3, mean lifetime of closed state 3 / τC4, mean lifetime of closed state 4 / τC5, mean lifetime of closed state 5 / τO, mean open time: 100 μM NFx
Experimental: Human TREK-2 (KCNK10) “crystal construct” protein (Gly67 to Glu340) was expressed and purified as previously described ([Dong et al., 2015]), with the exception that it was purified in 1% wt/vol n-octyl-β-D-glucoside, 0.1% wt/vol cholesteryl hemisuccinate. 1,2-Diphytanoyl-sn-glycero-3-phosphocholine was dissolved in chloroform to a concentration of 10 mM and stored at −20°C. The GUVs were then made by electroformation in a 1 M sorbitol solution using Vesicle Prep Pro (Nanion Technologies). Purified TREK-2 was then mixed with GUVs to a final concentration of ∼1–5 µg/ml and incubated overnight at 4°C with 0.5 mg/ml Bio-Beads (Bio-Rad) before use.
All electrophysiological recordings were performed with the Nanion Port-a-Patch system connected to an Axopatch 200B amplifier via a Digidata 1440A digitizer (Molecular Devices). Data were filtered at 5 kHz and recorded at a 200-kHz sampling rate with program Clampex (Molecular Devices). Experiments were performed in symmetrical 200 mM KCl and 10 mM HEPES (pH 6.0 with KOH) solutions. Single-channel currents were idealized using 50% threshold criterion with program Clampfit (Molecular Devices) at an imposed resolution of 50 µs. Only one open and one closed level were considered in the analysis; all subconductance states were neglected (these typically comprised less than 1% of open- and closed-level events of channels in the “high PO” mode). Analysis of amplitude and dwell-time distributions was performed in Origin (OriginLab Corporation) and an in-house software written in Mathematica (Wolfram Technologies). Empirical correction for open times due to missed events was performed as described previously ([Davies et al., 1992]). Critical time for burst analysis was determined using Colquhoun and Sakmann criterion ([Colquhoun and Sakmann, 1985]).

NCCC(Oc1ccc(C(F)(F)F)cc1)c1ccccc1 (stereo not drawn) [NFx, norfluoxetine]
Po (single-channel open probability) (channel with high Po (Fig. S5B)): 0.70 | Po (single-channel open probability) (channel with low Po (Fig. S5A)): 0.048 | block of channel (Po) (high-Po mode): 20 ± 0.02% | block of channel (Po) (standard mode): 23 ± 0.05% | AC1, area of closed state 1 (V 20 mV, high-Po mode): 74% | AC2, area of closed state 2 (V 20 mV, high-Po mode): 15.5% | AC3, area of closed state 3 (V 20 mV, high-Po mode): 4.4% | AC4, area of closed state 4 (V 20 mV, high-Po mode): 4.9% | AC5, area of closed state 5 (V 20 mV, high-Po mode): 1.5% | τC1, mean lifetime of closed state 1 (V 20 mV, high-Po mode): 0.041 ms | τC2, mean lifetime of closed state 2 (V 20 mV, high-Po mode): 0.30 ms | τC3, mean lifetime of closed state 3 (V 20 mV, high-Po mode): 1.3 ms | τC4, mean lifetime of closed state 4 (V 20 mV, high-Po mode): 23 ms | τC5, mean lifetime of closed state 5 (V 20 mV, high-Po mode): 90 ms | τO, mean open time (V 20 mV, high-Po mode): 0.53 ms | AC1, area of closed state 1 (V 40 mV, high-Po mode): 75% | AC2, area of closed state 2 (V 40 mV, high-Po mode): 13.7% | AC3, area of closed state 3 (V 40 mV, high-Po mode): 3.3% | AC4, area of closed state 4 (V 40 mV, high-Po mode): 6.2% | AC5, area of closed state 5 (V 40 mV, high-Po mode): 2.0% | τC1, mean lifetime of closed state 1 (V 40 mV, high-Po mode): 0.083 ms | τC2, mean lifetime of closed state 2 (V 40 mV, high-Po mode): 0.36 ms | τC3, mean lifetime of closed state 3 (V 40 mV, high-Po mode): 4.8 ms | τC4, mean lifetime of closed state 4 (V 40 mV, high-Po mode): 39 ms | τC5, mean lifetime of closed state 5 (V 40 mV, high-Po mode): 160 ms | τO, mean open time (V 40 mV, high-Po mode): 0.69 ms | AC1, area of closed state 1 (V 60 mV, high-Po mode): 75% | AC2, area of closed state 2 (V 60 mV, high-Po mode): 13.9% | AC3, area of closed state 3 (V 60 mV, high-Po mode): 3.5% | AC4, area of closed state 4 (V 60 mV, high-Po mode): 5.7% | AC5, area of closed state 5 (V 60 mV, high-Po mode): 1.6% | τC1, mean lifetime of closed state 1 (V 60 mV, high-Po mode): 0.059 ms | τC2, mean lifetime of closed state 2 (V 60 mV, high-Po mode): 0.31 ms | τC3, mean lifetime of closed state 3 (V 60 mV, high-Po mode): 2.1 ms | τC4, mean lifetime of closed state 4 (V 60 mV, high-Po mode): 41 ms | τC5, mean lifetime of closed state 5 (V 60 mV, high-Po mode): 160 ms | τO, mean open time (V 60 mV, high-Po mode): 0.60 ms | AC1, area of closed state 1 (V 80 mV, high-Po mode): 76% | AC2, area of closed state 2 (V 80 mV, high-Po mode): 11.9% | AC3, area of closed state 3 (V 80 mV, high-Po mode): 1.9% | AC4, area of closed state 4 (V 80 mV, high-Po mode): 7.7% | AC5, area of closed state 5 (V 80 mV, high-Po mode): 2.6% | τC1, mean lifetime of closed state 1 (V 80 mV, high-Po mode): 0.055 ms | τC2, mean lifetime of closed state 2 (V 80 mV, high-Po mode): 0.32 ms | τC3, mean lifetime of closed state 3 (V 80 mV, high-Po mode): 2.9 ms | τC4, mean lifetime of closed state 4 (V 80 mV, high-Po mode): 78 ms | τC5, mean lifetime of closed state 5 (V 80 mV, high-Po mode): 490 ms | τO, mean open time (V 80 mV, high-Po mode): 0.49 ms | AC1, area of closed state 1 (V 100 mV, high-Po mode): 77% | AC2, area of closed state 2 (V 100 mV, high-Po mode): 9.2% | AC3, area of closed state 3 (V 100 mV, high-Po mode): 2.5% | AC4, area of closed state 4 (V 100 mV, high-Po mode): 7.5% | AC5, area of closed state 5 (V 100 mV, high-Po mode): 4.1% | τC1, mean lifetime of closed state 1 (V 100 mV, high-Po mode): 0.064 ms | τC2, mean lifetime of closed state 2 (V 100 mV, high-Po mode): 0.30 ms | τC3, mean lifetime of closed state 3 (V 100 mV, high-Po mode): 1.9 ms | τC4, mean lifetime of closed state 4 (V 100 mV, high-Po mode): 72 ms | τC5, mean lifetime of closed state 5 (V 100 mV, high-Po mode): 220 ms | τO, mean open time (V 100 mV, high-Po mode): 0.44 ms | AC1, area of closed state 1 (V −20 mV, high-Po mode): 81% | AC2, area of closed state 2 (V −20 mV, high-Po mode): 10.7% | AC3, area of closed state 3 (V −20 mV, high-Po mode): 2.5% | AC4, area of closed state 4 (V −20 mV, high-Po mode): 5.0% | AC5, area of closed state 5 (V −20 mV, high-Po mode): 0.6% | τC1, mean lifetime of closed state 1 (V −20 mV, high-Po mode): 0.061 ms | τC2, mean lifetime of closed state 2 (V −20 mV, high-Po mode): 0.35 ms | τC3, mean lifetime of closed state 3 (V −20 mV, high-Po mode): 2.5 ms | τC4, mean lifetime of closed state 4 (V −20 mV, high-Po mode): 45 ms | τC5, mean lifetime of closed state 5 (V −20 mV, high-Po mode): 260 ms | τO, mean open time (V −20 mV, high-Po mode): 0.54 ms | AC1, area of closed state 1 (V −40 mV, high-Po mode): 85% | AC2, area of closed state 2 (V −40 mV, high-Po mode): 9.3% | AC3, area of closed state 3 (V −40 mV, high-Po mode): 1.7% | AC4, area of closed state 4 (V −40 mV, high-Po mode): 4.2% | AC5, area of closed state 5 (V −40 mV, high-Po mode): 0.2% | τC1, mean lifetime of closed state 1 (V −40 mV, high-Po mode): 0.069 ms | τC2, mean lifetime of closed state 2 (V −40 mV, high-Po mode): 0.35 ms | τC3, mean lifetime of closed state 3 (V −40 mV, high-Po mode): 2.5 ms | τC4, mean lifetime of closed state 4 (V −40 mV, high-Po mode): 52 ms | τC5, mean lifetime of closed state 5 (V −40 mV, high-Po mode): 520 ms | τO, mean open time (V −40 mV, high-Po mode): 0.51 ms | AC1, area of closed state 1 (V −60 mV, high-Po mode): 85% | AC2, area of closed state 2 (V −60 mV, high-Po mode): 9.5% | AC3, area of closed state 3 (V −60 mV, high-Po mode): 1.2% | AC4, area of closed state 4 (V −60 mV, high-Po mode): 3.4% | AC5, area of closed state 5 (V −60 mV, high-Po mode): 0.6% | τC1, mean lifetime of closed state 1 (V −60 mV, high-Po mode): 0.082 ms | τC2, mean lifetime of closed state 2 (V −60 mV, high-Po mode): 0.30 ms | τC3, mean lifetime of closed state 3 (V −60 mV, high-Po mode): 1.6 ms | τC4, mean lifetime of closed state 4 (V −60 mV, high-Po mode): 44 ms | τC5, mean lifetime of closed state 5 (V −60 mV, high-Po mode): 230 ms | τO, mean open time (V −60 mV, high-Po mode): 0.35 ms | AC1, area of closed state 1 (V −80 mV, high-Po mode): 89% | AC2, area of closed state 2 (V −80 mV, high-Po mode): 6.0% | AC3, area of closed state 3 (V −80 mV, high-Po mode): 1.0% | AC4, area of closed state 4 (V −80 mV, high-Po mode): 2.8% | AC5, area of closed state 5 (V −80 mV, high-Po mode): 0.8% | τC1, mean lifetime of closed state 1 (V −80 mV, high-Po mode): 0.110 ms | τC2, mean lifetime of closed state 2 (V −80 mV, high-Po mode): 0.37 ms | τC3, mean lifetime of closed state 3 (V −80 mV, high-Po mode): 9.5 ms | τC4, mean lifetime of closed state 4 (V −80 mV, high-Po mode): 58 ms | τC5, mean lifetime of closed state 5 (V −80 mV, high-Po mode): 140 ms | τO, mean open time (V −80 mV, high-Po mode): 0.27 ms | AC1, area of closed state 1 (V −100 mV, high-Po mode): 88% | AC2, area of closed state 2 (V −100 mV, high-Po mode): 8.0% | AC3, area of closed state 3 (V −100 mV, high-Po mode): 0.6% | AC4, area of closed state 4 (V −100 mV, high-Po mode): 2.2% | AC5, area of closed state 5 (V −100 mV, high-Po mode): 1.0% | τC1, mean lifetime of closed state 1 (V −100 mV, high-Po mode): 0.110 ms | τC2, mean lifetime of closed state 2 (V −100 mV, high-Po mode): 0.37 ms | τC3, mean lifetime of closed state 3 (V −100 mV, high-Po mode): 3.0 ms | τC4, mean lifetime of closed state 4 (V −100 mV, high-Po mode): 40 ms | τC5, mean lifetime of closed state 5 (V −100 mV, high-Po mode): 140 ms | τO, mean open time (V −100 mV, high-Po mode): 0.20 ms
